Here are results for 3 compounds from patent US4999351A, “7-aryl and heteroaryl ethers of desacetylforskolin” (Hoechst-Roussel Pharmaceuticals, Inc., priority 1989, dated 1991).

Structures can show the parent of a compound that is named as a salt.

This assay concerns isolated guinea pig atria. The assay is described as follows: Inotropic activity: increase in contractile force in isolated guinea pig atria. The settings on record: Cavia porcellus; isolated left atrium, male guinea pig; 50% change of contractile force over the stabilized rate; Kreb's solution, 37° C., 3 Hz stimulation; read-out: Extrapolated ED50 value (concentration increasing contractile force by 50%). Here is the method:
The aryl and heteroaryl ethers of desacetylforskolin of the present invention are useful in the treatment of cardiac failure by virtue of their ability to elicit a positive inotropic effect as evidenced by an increase in contractile force in an isolated guinea pig atria assay which is performed as follows: Male guinea pigs weighing 200-300 grams are stunned with a blow to the back of the head. The heart is rapidly removed and placed in a petri dish containing Kreb's solution. The ventricle is separated from the atria, the atria are sectioned in the right and left atria, and double-O silk ligatures are tied to the apex of the left atrium. The atrium is fixed to a pair of platinum plate electrodes and suspended in a 20 ml tissue bath containing Kreb's solution aerated with 95% oxygen-5% carbon dioxide at 37° C. One end of the atrium is fixed to a hook in the electrode and the other end is connected to a Grass FT03 force displacement transducer. Resting tension and stabilization time are the same as described above. The atrium is stimulated at 3 Hz, 0.5 msec duration at supramaximal voltage (constant current) via a Grass S88 stimulator and constant current unit. Force of contraction is continuously displaced on a Gould recorder Test drug is prepared as in section A and is added to the tissue baths in the same fashion. Change in contractile force from baseline is determined for each concentration, and the change in contractile force (g) is plotted against accumulated drug concentration (ug/ml). The activity of the test drug, i.e., the increase in contractile force (g) from the stabilized force expressed as the percentage change at a given concentration is determined graphically, as in the ED50 -value, i.e., the extrapolated does (μg/ml) which increases the contractile force by 50% over the stabilized rate.
For `C=C[C@@]1(C)CC(=O)[C@]2(O)[C@@]3(C)[C@@H](O)CCC(C)(C)[C@@H]3[C@H](OC(=O)NCCN(C)C)[C@H](Oc3ccccn3)[C@@]2(C)O1` [A, 7-desacetyl-6-(2-dimethylaminoethylaminocarbonyl)-7-(pyridin-2-yl)forskolin hydrochloride hydrate], the EC (50% increase) is 0.009 µg/mL. For the compound `C=C[C@@]1(C)CC(=O)[C@]2(O)[C@@]3(C)[C@@H](O)CCC(C)(C)[C@@H]3[C@H](O)[C@H](Oc3ncccn3)[C@@]2(C)O1` [B, 7-Desacetyl-7-(pyrimidin-2-yl)forskolin], the EC (50% increase) was 0.01 µg/mL. In the case of `C=C[C@@]1(C)CC(=O)[C@]2(O)[C@@]3(C)[C@@H](O)CCC(C)(C)[C@@H]3[C@H](O)[C@H](OC(C)=O)[C@@]2(C)O1` [Compound C, Forskolin] it was 0.073 µg/mL.
